# Test results published in US20010027209A1, “Method and composition for treating and preventing mycobacterium infections” (Sarawak Medichem Pharmaceuticals, Inc., priority 1998, published 2001).
# Several values for one entry are separate records, joined by “and”; a condition that tells them apart may be missing. Identical values can stand only once. Like-named read-outs stand apart in the source and are kept apart here.
# Columns and labels:
# Mtb = conditions: against Mtb, background section; cited from earlier work
# [1] = tested on: Mycobacterium tuberculosis H37Rv; assay: in vitro primary screening assay in BACTEC 12B medium, BACTEC 460 radiometric system; assay type: cell-based; conditions: for inhibition at 12.5 µg/mL: H37RV; for MIC: M. tuberculosis H37Rv
# M. tuberculosis H37Rv = assay: actual minimum inhibitory concentration (MIC) at lower concentrations, BACTEC 460; assay type: cell-based; conditions: Mycobacterium tuberculosis, lowest concentration inhibiting 99% of the inoculum
# [2] = concentration 12.5 μg/mL, BACTEC 12B medium
# [3] = Mycobacterium tuberculosis, concentration 12.5 μg/mL, BACTEC 12B medium, read-out: inhibition against Mtb H37Rv
# [4] = Mycobacterium tuberculosis, table of Example 38, 12.5 μg/mL, read-out: % Inhibition
# [5] = Mycobacterium tuberculosis, table of Example 38, read-out: MIC
# [6] = table of Example 38, 12.5 μg/mL
compound,measurement,setting,value
NC(=O)c1cnccn1 [Pyrazinamide],MIC,Mtb,20 µg/mL
(+)-Calanolide A,inhibition against Mtb H37Rv,[1]; [2],98% and 96%
"CCCc1cc(=O)oc2c3c(c4c(c12)OC(C)(C)C=C4)O[C@@H](C)[C@H](C)[C@@H]3O [Costatolide, (−)-calanolide B]",inhibition at 12.5 µg/mL,[1]; [3],99%
same,inhibition at 12.5 µg/mL,[1]; [4],99%
same,MIC,[1]; [5],< 12.5 µg/mL
(−)-Calanolide A,inhibition against Mtb H37Rv,[1]; [2],98%
"CCCc1cc(=O)oc2c3c(c4c(c12)OC(C)(C)CC4)OC(C)C(C)C3=O (racemic) [(±)-Trans-dihydroketone, (±)-10,11-trans-4-Propyl-7,8,10,11-tetrahydro-6,6,10,11-tetramethyl-2 H,6 H,12 H-benzo[1,2-b:3,4-b′:5,6-b″]tripyran-2,12-dione]",% Inhibition,[1]; [6],43%
same,MIC,[1]; table of Example 38,<12.5 µg/mL
C[C@H]1[C@H](C)Oc2c3c(c4c(-c5ccccc5)cc(=O)oc4c2[C@H]1O)OC(C)(C)C=C3 [Soulattrolide],inhibition at 12.5 µg/mL,[1]; [3],99%
same,inhibition at 12.5 µg/mL,[1]; [4],99%
same,MIC,[1]; [5],< 12.5 µg/mL
CO[C@H]1/C=C/O[C@@]2(C)Oc3c(C)c(O)c4c(O)c(c(/C=N/N5CCN(C)CC5)c(O)c4c3C2=O)NC(=O)/C(C)=C\C=C\[C@H](C)[C@H](O)[C@@H](C)[C@@H](O)[C@@H](C)[C@H](OC(C)=O)[C@@H]1C [rifampicin],MIC,M. tuberculosis H37Rv,0.06 µg/mL
"CCCc1cc(=O)oc2c3c(c4c(c12)OC(C)(C)C=C4)OC(C)C(C)C3=O (single isomer, unassigned; (-)) [(−)-Trans-ketone]",% Inhibition,[1]; [6],78%
same,MIC,[1]; table of Example 38,<12.5 µg/mL
"(−)-7,8-dihydrosoulattrolide [(−)-7,8-Dihydrosoulatrolide]",inhibition against Mtb H37Rv,[1]; [2],99%
same,% Inhibition,[1]; [6],99%
same,MIC,[1]; table of Example 38,<12.5 µg/mL
"CCCc1cc(=O)oc2c3c(c4c(c12)OC(C)(C)C=C4)OC(C)C(C)C3=O (racemic) [(±)-Trans-ketone, 10,11-trans-dihydro-4-propyl-6,6,10,11-tetramethyl-2 H,6 H,12 H-benzo[1,2-b:3,4b′:5,6-b″]-tripyran-2,12-dione]",% Inhibition,[1]; [6],59%
same,MIC,[1]; table of Example 38,<12.5 µg/mL
